Measured values as given in ChEMBL document CHEMBL6182902, “Design, synthesis, and discovery of cinnamoyl amide derivatives as potent NagZ inhibitors with antibacterial activity” (Eur J Med Chem, 2025).
The source made the active and inactive calls. No cut-off for these calls is given here.

Assays:
[1] = tested on: Escherichia coli; test: Inhibition of recombinant N-terminal His-tagged Escherichia coli BL21 NagZ extracted from Escherichia coli BL21 using pNP-GlcNAc as substrate at 100 uM by absorbance based assay relative to control
[2] = Inhibition of recombinant N-terminal His-tagged Escherichia coli BL21 NagZ extracted from Escherichia coli BL21 using pNP-GlcNAc as substrate by absorbance based assay
[3] = Inhibition of recombinant N-terminal His-tagged Escherichia coli BL21 NagZ extracted from Escherichia coli BL21 using different concentrations of substrate pNP-GlcNAc by 4-nitrophenolate ion release based spectrophotometric analysis
[4] = tested on: Pseudomonas aeruginosa; test: Antibacterial activity against Pseudomonas aeruginosa ATCC 27853 infected in female KM mouse assessed as wound healing rate in skin at 40 mg/kg, iv measured after 3 days (reference value: 36.2 %); format: functional; conditions: time 3 day
[5] = tested on: Pseudomonas aeruginosa; test: Antibacterial activity against Pseudomonas aeruginosa ATCC 27853 infected in female KM mouse assessed as increase in wound contraction in skin at 40 mg/kg, iv measured after 3 days; format: functional, organism-based; conditions: time 3.0 day
[6] = tested on: Pseudomonas aeruginosa; test: Antibacterial activity against Pseudomonas aeruginosa ATCC 27853 infected in female KM mouse assessed as epithelial tissue proliferation in skin at 40 mg/kg, iv measured after 3 days; format: functional, organism-based; conditions: time 3.0 day
[7] = tested on: Pseudomonas aeruginosa; test: Antibacterial activity against Pseudomonas aeruginosa ATCC 27853 infected in female KM mouse assessed as wound healing rate in skin at 20 mg/kg, iv measured after 3 days (reference value: 36.2 %); format: functional; conditions: time 3 day
[8] = tested on: Pseudomonas aeruginosa; test: Antibacterial activity against Pseudomonas aeruginosa ATCC 27853 infected in female KM mouse assessed as epithelial tissue proliferation in skin at 20 mg/kg, iv measured after 3 days; format: functional, organism-based; conditions: time 3.0 day

| SMILES | inhibition [1] | other results |
| --- | --- | --- |
| CC1=C(O)C(=O)C=C2C1=CC=C1[C@@]2(C)CC[C@@]2(C)[C@@H]3C[C@](C)(C(=O)O)CC[C@]3(C)CC[C@]12C [CELASTROL] | 50% | IC50 [2]: 62.8 µM |
| O=C(/C=C/c1c(Cl)cccc1Cl)N[C@@H](Cc1ccc(I)cc1)C(=O)O | 76.9% | Ki [3]: 22.2 µM; IC50 [2]: 84.9 µM |
| O=C(/C=C/c1ccc(F)cc1)NC(Cc1ccc(Br)cc1)C(=O)O (racemic) | 17.5% | – |
| O=C(/C=C/c1ccc(Cl)cc1)N[C@H](Cc1ccc(Br)cc1)C(=O)O | 49.8% | – |
| COC(=O)[C@H](Cc1ccc(I)cc1)NC(=O)/C=C/c1ccc(F)cc1 | 14% | – |
| O=C(/C=C/c1ccc(O)c(O)c1)O[C@H](Cc1ccc(O)c(O)c1)C(=O)O [ROSMARINIC ACID] | 64.3% | IC50 [2]: 56.1 µM |
| O=C(O)[C@H](Cc1ccc(I)cc1)NC(=O)[C@H]1C[C@@H]1c1ccccc1 | 29.1% | – |
| O=C(/C=C/c1cccc([N+](=O)[O-])c1)N[C@@H](Cc1ccc(I)cc1)C(=O)O | 42.1% | – |
| CC(C)(O/N=C(\C(=O)N[C@@H]1C(=O)N2C(C(=O)[O-])=C(C[n+]3ccccc3)CS[C@H]12)c1csc(N)n1)C(=O)O [CEFTAZIDIME] | – | Activity [4]: 62.2%; Activity [5]: Active; Activity Higher Than Imipenem; Activity [6]: Active |
| O=C(/C=C/c1ccc(Br)cc1)N[C@@H](Cc1ccccc1)C(=O)O | 16.9% | – |
| COC(=O)C(Cc1ccc(Br)cc1)NC(=O)/C=C/c1ccc(Cl)c(Cl)c1 (racemic) | inactive | – |
| O=C(/C=C\c1ccccc1)N[C@@H](Cc1ccc(I)cc1)C(=O)O | 12% | – |
| O=C(/C=C/c1ccc(I)cc1)N[C@H](Cc1ccc(Br)cc1)C(=O)O | 76.1% | – |
| C=CCc1ccc(O)c(-c2cc(CC=C)ccc2O)c1 [MAGNOLOL] | 58.9% | IC50 [2]: 88.3 µM |
| O=C(/C=C/c1ccco1)N[C@@H](Cc1ccc(I)cc1)C(=O)O | 35.8% | – |
| COC(=O)[C@H](Cc1ccccc1)NC(=O)/C=C/c1ccc(Cl)c(Cl)c1 | inactive | – |
| O=C(/C=C/c1cccc(Cl)c1)N[C@@H](Cc1ccccc1)C(=O)O | 19.9% | – |
| O=C(/C=C/c1ccc(Cl)c(Cl)c1)N[C@H](Cc1ccc(Br)cc1)C(=O)O | 87% | Ki [3]: 3.5 µM; IC50 [2]: 6.3 µM |
| O=C(/C=C/c1ccc([N+](=O)[O-])o1)N[C@@H](Cc1ccc(I)cc1)C(=O)O | 48.4% | – |

| SMILES | inhibition [1] | other results |
| --- | --- | --- |
| O=C(/C=C/c1ccc(O)cc1)N[C@@H](Cc1ccc(I)cc1)C(=O)O | 46.2% | – |
| O=C(/C=C/c1c[nH]c2ccccc12)N[C@@H](Cc1ccc(I)cc1)C(=O)O | 78.8% | Ki [3]: 15.5 µM; IC50 [2]: 39.6 µM |
| CC1(C)CC[C@]2(C(=O)O)CC[C@]3(C)C(=CC[C@@H]4[C@@]5(C)CC[C@H](O)[C@@](C)(CO)[C@@H]5CC[C@]43C)[C@@H]2C1 [HEDERAGENIN] | 29.4% | IC50 [2]: 101 µM |
| O=C(/C=C/c1ccc(Cl)c(Cl)c1)NC(Cc1ccc(Br)cc1)C(=O)O (racemic) | 86.1% | Ki [3]: 22.4 µM; IC50 [2]: 36.5 µM |
| O=C(/C=C/c1ccccc1)N[C@@H](Cc1ccc(I)cc1)C(=O)O | 20.2% | – |
| O=C(/C=C/c1ccc(Br)cc1)N[C@@H](Cc1ccc(I)cc1)C(=O)O | 81.2% | Ki [3]: 24.2 µM; IC50 [2]: 119 µM |
| O=C(/C=C/c1ccc([N+](=O)[O-])o1)N[C@H](Cc1ccc(Br)cc1)C(=O)O | 38.2% | – |
| O=C(/C=C/c1ccc(Cl)c(Cl)c1)NC(Cc1ccc(Cl)cc1)C(=O)O (racemic) | 77.1% | – |
| O=C(O[C@@H]1Cc2c(O)cc(O)cc2O[C@H]1c1cc(O)c(O)c(O)c1)c1cc(O)c(O)c(O)c1 [GALLOCATECHIN GALLATE] | 54.9% | IC50 [2]: 64.3 µM |
| COC(=O)C(Cc1ccc(Br)cc1)NC(=O)/C=C/c1ccc(F)cc1 (racemic) | 7.2% | – |
| O=C(O[C@@H]1Cc2c(O)cc(O)cc2O[C@@H]1c1cc(O)c(O)c(O)c1)c1cc(O)c(O)c(O)c1 [EPIGALOCATECHIN GALLATE] | 51.4% | IC50 [2]: 61.2 µM |
| COC(=O)C(Cc1ccc(Br)cc1)NC(=O)/C=C/c1ccc(Cl)cc1 (racemic) | inactive | – |
| CC(=O)N[C@H]1/C(=N/OC(=O)Nc2ccccc2)O[C@H](CO)[C@@H](O)[C@@H]1O [PUGNAC] | – | Ki [2]: 75 nM |
| O=C(/C=C/c1ccc(Cl)cc1)NC(Cc1ccc(Br)cc1)C(=O)O (racemic) | 37.2% | – |
| O=C(/C=C/c1ccc(F)cc1)N[C@@H](Cc1ccc(I)cc1)C(=O)O | 34.3% | – |
| O=C(/C=C/c1ccc([N+](=O)[O-])cc1)N[C@@H](Cc1ccc(I)cc1)C(=O)O | 37.2% | – |
| O=C(/C=C/c1cc(F)c(F)c(F)c1)N[C@@H](Cc1ccc(I)cc1)C(=O)O | 60.3% | – |
| COC(=O)[C@H](Cc1ccccc1)NC(=O)/C=C/c1ccc(Br)cc1 | inactive | – |
| O=C(N[C@@H](Cc1ccc(I)cc1)C(=O)O)/C(=C/c1ccccc1)c1ccccc1 | 86.8% | Ki [3]: 15.5 µM; IC50 [2]: 39.6 µM |

| SMILES | inhibition [1] | other results |
| --- | --- | --- |
| O=C(/C=C/c1ccc(F)c(Cl)c1)N[C@H](Cc1ccc(Br)cc1)C(=O)O | 71.6% | – |
| CC1(C)[C@@H](O)CC[C@]2(C)[C@H]3C(=O)C=C4[C@H]5C[C@@](C)(C(=O)O)CC[C@]5(C)CC[C@@]4(C)[C@]3(C)CC[C@@H]12 [18alpha-GLYCYRRHETINIC ACID] | 69.6% | IC50 [2]: 75.5 µM |
| O=C(CCc1ccccc1)N[C@@H](Cc1ccc(I)cc1)C(=O)O | 21.5% | – |
| O=C(C#Cc1ccccc1)N[C@@H](Cc1ccc(I)cc1)C(=O)O | 29.7% | – |
| O=C(/C=C/c1ccc(Cl)cc1)N[C@@H](Cc1ccc(I)cc1)C(=O)O | 75.7% | Ki [3]: 56.1 µM; IC50 [2]: 182 µM |
| O=C(/C=C/c1ccc(I)cc1)N[C@@H](Cc1ccc(I)cc1)C(=O)O | 85.5% | Ki [3]: 14.3 µM; IC50 [2]: 110 µM |
| O=C(/C=C/c1ccc(O)c(O)c1)N[C@@H](Cc1ccc(I)cc1)C(=O)O | 66.5% | – |
| O=C(/C=C/c1ccc(Br)cc1)N[C@H](Cc1ccc(Br)cc1)C(=O)O | 46.5% | – |
| O=C(/C=C/c1ccc(Cl)c(Cl)c1)N[C@@H](Cc1ccccc1)C(=O)O | 50.4% | – |
| COC(=O)[C@H](Cc1ccccc1)NC(=O)/C=C/c1cccc(Cl)c1 | 11.6% | – |
| O=C(/C=C/c1ccc2ccccc2c1)N[C@@H](Cc1ccc(I)cc1)C(=O)O | 87% | Ki [3]: 7.4 µM; IC50 [2]: 10.8 µM |
| O=C(/C=C/c1ccc(F)c(F)c1)N[C@@H](Cc1ccc(I)cc1)C(=O)O | 30.5% | – |
| O=C(/C=C/c1ccccc1)N[C@H](Cc1ccc(Br)cc1)C(=O)O | 15.9% | – |
| O=C(/C=C/c1ccc(F)c(Cl)c1)N[C@@H](Cc1ccc(I)cc1)C(=O)O | 72% | – |
| C[C@@H](O)[C@H]1C(=O)N2C(C(=O)O)=C(SCCNC=N)C[C@H]12 [IMIPENEM ANHYDROUS] | – | Activity [7]: 54.4%; Activity [8]: Active |
| O=C(/C=C/c1ccc(Cl)c(Cl)c1)N[C@@H](Cc1c[nH]c2ccccc12)C(=O)O | 68.2% | – |
| O=C(CCc1ccc(Cl)c(Cl)c1)N[C@@H](Cc1ccc(I)cc1)C(=O)O | 73.5% | – |
| COC(=O)[C@H](Cc1ccc(I)cc1)NC(=O)/C=C/c1ccc(Cl)c(Cl)c1 | inactive | – |
| O=C(O[C@@H]1Cc2c(O)cc(O)cc2O[C@@H]1c1ccc(O)c(O)c1)c1cc(O)c(O)c(O)c1 [EPICATECHIN GALLATE] | 45.1% | IC50 [2]: 70.4 µM |
